Data set [1] addresses P-gp (P-gp over-expressing cell line, DU145TXR) (Homo sapiens, UniProt P08183). Nature of the data set: Cellular accumulation of experimental compounds by LC-MS/MS with and without tariquidar. As to the method:
Stimulation of basal ATPase by 29-variants was used as an indicator that a compound may be a P-gp transport substrate. Effects on stimulated P-gp ATPase activity indicated whether a compound directly interfered with ATP usage by the protein (***, p<0.001; **, p<0.01; *, p<0.1; NS, not significant). Quantitative cellular accumulation of 29-variants was performed using LC-MS/MS and is presented as a ratio of the cellular amounts of 29-variants in the presence of P-gp inhibitor, tariquidar, divided by amounts accumulated in its absence. […] Binding of an ATP analog, SL-ATP, to P-gp was used to determine whether ATP binding to P-gp was affected by the 29-variants. Values +/−standard deviations are shown for at least three different P-gp preparations and three independent SL-ATP titration experiments. The values for SL-ATP binding in the presence of 29 were taken directly from Brewer et al. (2014).
Intracellular accumulation of compound 29 variants. Cell accumulation assays for each of the 29 variants were performed as in reference^28 to more directly assess whether the compounds were indeed transport substrates for P-gp.
Cellular Accumulation Assays for Experimental P-gp Inhibitors. Cells used (DU145TXR), cell culturing, cell exposure to compounds, cellular handling and extractions were performed as described in^28. LC-MS/MS methods were performed as described in^71 and as modified in^28.

Data set [2] concerns P-gp overexpressing prostate cancer cell line, DU145TXR. The experiment in a line: MTT cell viability assay, resensitization to paclitaxel. It counts as cell-based, human. As to conditions: Homo sapiens; paclitaxel alone, DU145TXR, 48 hours; read-out: IC50 PTX, PTX alone. From the text: The Group 1 ChemGen/docking routine produced variants of P-gp inhibitor 29 resensitize a multidrug resistant, P-gp overexpressing prostate cancer cell line to paclitaxel. The mitochondrial reduction potential of cells is often used as an indicator for cell viability using MTT assays^4. Using these assays it was observed that the five Group 1 derivatives of 29 predicted through the ChemGen/docking routine and synthesized here, 216, 227, 231, 541 and 551, re-sensitized the P-gp overexpressing prostate cancer cell line, DU145TXR^33, to the chemotherapeutic, paclitaxel (FIG. 12, showing results of assays at concentrations of 3 μM, 5 μM, 7 μM, and 10 μM).
Cytotoxicity of the chemotherapeutic, paclitaxel (PTX) to P-gp overexpressing prostate cancer cells, DU145TXR, was determined in the absence and presence of the ChemGen designed 29-variants, 216, 227, 231, 541 and 551. For each experimental compound IC50 values of PTX alone or in the presence of inhibitors, fold improvement of PTX sensitivity in the presence of inhibitor, and fold improvement of PTX sensitivity by variants compared to parental compound 29 are given.
Effects of Group 2 variants on the paclitaxel sensitivity of P-glycoprotein overexpressing prostate cancer cells, DU145TXR. MTT assays were again used to assess the efficacy of the new structural 29-variants on sensitizing the chemotherapy-resistant prostate cancer cell line, DU145TXR, to paclitaxel, at concentrations of 3 μM, 5 μM, 7 μM, and 10 μM as shown in FIG. 15 and Table 4.
MTT cell viability assay. Cells were trypsinized from monolayers and seeded with 3000 cells in 150 μL of complete medium in a 96 well plate. After 24 hours, cells were treated for 48 hours with paclitaxel (Acros Organics, NJ) and/or P-gp inhibitory compounds dissolved in DMSO, or DMSO controls. All additions were diluted into complete medium. After 48 hours of treatment, MTT assays were performed as described^41 using 5 mg/mL of MTT (Acros Organics, NJ) solution prepared in PBS (137 mM NaCl, 2.7 mM KCl, 10 mM Na2HPO4, 1.8 mM KH2PO4, pH 7.4). After 4 hours of incubation with MTT, the media was removed and the formazan crystals were dissolved in 100 μL of DMSO. The absorbance at 570 nm was then measured using a BioTek Cytation 5 imaging multi-mode reader (Bio-Tek, Winooski, Vt.). Percent viability was calculated using DMSO treated cells as representative for 100% viability, according to Equation 1. Background absorbance was determined using MTT and complete medium without cells and subtracted from all the test values. Equation 1:
The results were plotted as the mean with standard deviation (SD) of eight replicates per concentration from at least two independent experiments with n=8. The graphical representations and IC50 values were determined using four parameter variable slope non-linear regression, using the following equation: Y=bottom+(top-bottom)/(1+10^((log IC50−X)*Hill Slope) (GraphPad Prism™, La Jolla Calif., USA, Version 6.05). The reported “fold sensitization” was calculated as follows, per Equation 2: […]

SMILES strings stand for the structures. pIC50: −log10 of the molar value.

Sequence of P-gp (P-gp over-expressing cell line, DU145TXR) (P08183 whole entry): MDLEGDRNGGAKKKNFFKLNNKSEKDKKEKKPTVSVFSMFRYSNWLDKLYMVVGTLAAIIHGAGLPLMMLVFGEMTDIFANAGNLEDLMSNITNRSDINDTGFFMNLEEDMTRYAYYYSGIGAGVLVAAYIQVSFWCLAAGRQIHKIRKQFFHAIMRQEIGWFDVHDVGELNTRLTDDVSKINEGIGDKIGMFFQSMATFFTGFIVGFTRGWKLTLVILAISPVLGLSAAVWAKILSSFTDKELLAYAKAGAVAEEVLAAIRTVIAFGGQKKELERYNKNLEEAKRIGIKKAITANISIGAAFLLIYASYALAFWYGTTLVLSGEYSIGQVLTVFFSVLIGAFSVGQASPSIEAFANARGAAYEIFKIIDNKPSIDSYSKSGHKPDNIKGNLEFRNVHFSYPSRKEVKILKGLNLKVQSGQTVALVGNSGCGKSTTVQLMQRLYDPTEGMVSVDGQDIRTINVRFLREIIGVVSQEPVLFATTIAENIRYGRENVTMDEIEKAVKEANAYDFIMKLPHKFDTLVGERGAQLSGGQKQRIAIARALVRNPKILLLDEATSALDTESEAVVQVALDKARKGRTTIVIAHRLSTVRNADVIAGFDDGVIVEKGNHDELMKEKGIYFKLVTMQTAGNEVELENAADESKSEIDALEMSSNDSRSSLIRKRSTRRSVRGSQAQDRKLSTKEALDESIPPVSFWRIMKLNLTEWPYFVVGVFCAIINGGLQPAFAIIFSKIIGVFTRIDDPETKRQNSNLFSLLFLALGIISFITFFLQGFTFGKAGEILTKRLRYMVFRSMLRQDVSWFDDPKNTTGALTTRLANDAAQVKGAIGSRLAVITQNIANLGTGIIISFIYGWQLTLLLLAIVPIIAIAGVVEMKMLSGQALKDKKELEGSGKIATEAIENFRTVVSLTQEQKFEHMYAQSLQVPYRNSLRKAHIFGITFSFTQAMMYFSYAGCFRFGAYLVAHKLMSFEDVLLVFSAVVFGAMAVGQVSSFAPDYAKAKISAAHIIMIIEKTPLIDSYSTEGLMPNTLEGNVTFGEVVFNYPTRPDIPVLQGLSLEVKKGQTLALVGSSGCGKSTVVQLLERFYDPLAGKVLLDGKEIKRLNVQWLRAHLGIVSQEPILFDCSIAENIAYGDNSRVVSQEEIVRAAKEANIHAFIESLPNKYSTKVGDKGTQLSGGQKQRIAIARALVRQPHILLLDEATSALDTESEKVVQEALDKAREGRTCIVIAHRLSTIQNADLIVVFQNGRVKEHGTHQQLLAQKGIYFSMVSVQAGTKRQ

For the compound `COc1cccc2c1C(=O)c1c(O)c3c(c(O)c1C2=O)C[C@@](O)(C(C)=O)C[C@@H]3O[C@H]1C[C@H](N)[C@H](O)[C@H](C)O1` [Daunorubicin, reference compound], in data set [1] (DU145TXR accumulation with/without tariquidar (and basal ATPase)), the “Transport substrate for P-gp” value is recorded as “good transport substrate for P-gp”. In data set [1] (DU145TXR, LC-MS/MS), the “Intracellular accumulation in absence vs presence of tariquidar (in words)” value is recorded as “very strong cellular accumulation”.

The pIC50 is the negative decadic logarithm of the IC50, by convention in mol/L. In the case of `CC(=O)O[C@H]1C(=O)[C@@]2(C)[C@H]([C@H](OC(=O)c3ccccc3)[C@]3(O)C[C@H](OC(=O)[C@H](O)[C@@H](NC(=O)c4ccccc4)c4ccccc4)C(C)=C1C3(C)C)[C@]1(OC(C)=O)CO[C@@H]1C[C@@H]2O` [PTX, paclitaxel, reference compound], the pIC50 in data set [2] is 5.67.

The values above are taken from patent US20210134398A1, “Combinatorial Chemistry Computational System and Enhanced Selection Method” (Southern Methodist University, priority 2019, published 2021).
